Bounds are passed on as bounds.

Broadly, the IC50 is the concentration that inhibits the measured activity by half.

endogenous CGRP receptor, sequence (Q16602 23-461): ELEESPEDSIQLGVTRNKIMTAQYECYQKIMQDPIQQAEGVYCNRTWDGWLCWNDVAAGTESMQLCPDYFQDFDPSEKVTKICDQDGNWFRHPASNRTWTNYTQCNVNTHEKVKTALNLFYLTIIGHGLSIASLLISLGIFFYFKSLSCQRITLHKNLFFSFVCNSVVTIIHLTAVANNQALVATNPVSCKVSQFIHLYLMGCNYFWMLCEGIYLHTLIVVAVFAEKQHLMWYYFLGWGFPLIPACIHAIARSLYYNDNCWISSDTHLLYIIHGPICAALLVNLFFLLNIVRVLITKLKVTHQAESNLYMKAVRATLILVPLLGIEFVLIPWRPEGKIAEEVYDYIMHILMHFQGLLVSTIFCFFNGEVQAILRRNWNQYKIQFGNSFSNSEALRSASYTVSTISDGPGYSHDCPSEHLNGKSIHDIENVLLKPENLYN
endogenous CGRP receptor, sequence (O60894 27-148): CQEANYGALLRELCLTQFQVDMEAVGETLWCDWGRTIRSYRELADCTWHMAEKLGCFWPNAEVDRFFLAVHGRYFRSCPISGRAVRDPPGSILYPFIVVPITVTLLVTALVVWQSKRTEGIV

In this assay the target is endogenous CGRP receptor (Homo sapiens, UniProt O60894+Q16602). Put plainly: CGRP functional antagonism using SK-N-MC-BLA (4C10), β-lactamase transcriptional reporter assay. It is filed as cell-based. To be noted: SK-N-MC (4C10) cells, inhibition of β-lactamase expression in the presence of 200 pM CGRP. From the text: Measuring CGRP Functional Antagonism Using SK-N-MC-BLA (4C10):
CGRP functional antagonism was characterized in a cell based transcriptional assay using a recombinant SK-N-MC line. To introduce the transcriptional reporter system, SK-N-MC cell line was transduced with a retroviral vector containing β-lactamase gene downstream of cAMP responsive promoter. The expression of β-lactamase is triggered by cAMP increase that is a downstream event of activation of endogenous CGRP receptor. Single clones were separated using Fluorescent Activated Cell Sorting (FACS) based on CGRP induced β-lactamase activity. β-lactamase activity was measured using a fluorescence energy transfer (FRET) dye, CCF4. […] To evaluate functional antagonist activity of compounds in SK-N-MC (4C10) line, compounds were evaluated for their inhibition of β-lactamase expression in the presence of CGRP.
SK-N-MC (4C10) was cultured in Minimal Essential Media (MEM) (Invitrogen) supplemented with 1 mM non-essential amino acids solution (Invitrogen), 100 units/ml Penicillin-Streptomycin (Invitrogen), 1 mM sodium pyruvate (Invitrogen) and 10% fetal bovine serum. For the β-lactamase assay, low serum, 1% FBS in MEM was used. 30,000 cells were plated into each wells of poly-D-lysine coated 384-well plate (Becton Dickinson) a day prior to the assay. SK-N-MC (4C10) was preincubated with compounds for 30 min before the addition of 200 pM CGRP. The assay was incubated for 3 hours at 37° C. to allow β-lactamase expression. CCF4 dye was added and incubated for 2 hours at room temperature. […] Curve fitting and IC50 calculation were carried about using MOD3.
On the technique in general: In a reporter assay the amount or activity of a reporter protein is the signal.
Take `CC(C)(C)CCN1C(=O)[C@H](CC(=O)N2CCC(n3nnc4ccccc43)CC2)SC1c1cccc(F)c1N1CCN(C(C)(C)C)CC1` (some centres unmarked) [Compound 451]: the IC50 lay in the range of 1000 to 5000 nM.
In the case of `COC(=O)[C@H](CC1CCCCC1)N1C(=O)C(CC(=O)N2CCC(N3Cc4ccccc4NC3=O)CC2)SC1c1ccccc1` (some centres unmarked) [Compound 55] it was 1000 to 5000 nM; in that of `CCC1SC(CC(=O)N2CCC(n3c(=O)[nH]c4ccccc43)CC2)C(=O)N1CC(F)(F)F` (centres unmarked) [Compound 218], greater than 5000 nM.
With `CN(C)C1CCN(c2c(F)cccc2[C@H]2S[C@@H](CC(=O)N3CCC(n4c(=O)[nH]c5ncccc54)CC3)C(=O)N2CCC(C)(C)C)C1` (some centres unmarked) [Compound 455] the figure was 1000 to 5000 nM; with `CN1CCN(c2cccc(C3SC(CC(=O)N4CCC(n5c(=O)[nH]c6ncccc65)CC4)C(=O)N3CCC(C)(C)C)c2)CC1` (centres unmarked) [Compound 413], less than 1000 nM; with `CCCOc1ccc(C2SC(CC(=O)N3CCC(N4Cc5ccccc5NC4=O)CC3)C(=O)N2CCC(C)C)cc1` (centres unmarked) [Compound 103], greater than 5000 nM.
On to `CC(C)(C)CCN1C(=O)[C@H](CC(=O)N2CCC(N3CCc4ccccc4NC3=O)CC2)SC1c1cccc(F)c1N1CCNCC1` (some centres unmarked) [Compound 398], for which the IC50 was greater than 5000 nM.
On to `CC(C)C[C@H](CO)N1C(=O)C(CC(=O)N2CCC(N3Cc4ccccc4NC3=O)CC2)SC1c1ccccc1` (some centres unmarked) [Compound 238], for which the IC50 was 1000 to 5000 nM.
As to `CN1CCN(c2cc(F)ccc2C2SC(CC(=O)N3CCC(n4c(=O)[nH]c5ncccc54)CC3)C(=O)N2CCC(C)(C)C)CC1` (centres unmarked) [Compound 362], the half-maximal inhibitory concentration (IC50) is 1000 to 5000 nM.
Regarding `CC(C)(C)CCN1C(=O)[C@H](CC(=O)N2CCC(n3c(=O)[nH]c4ncccc43)CC2)S[C@H]1c1cccc(F)c1N1CCC(N)C1` (some centres unmarked) [Compound 465], the half-maximal inhibitory concentration (IC50) lay in the range of 1000 to 5000 nM.
Take `CC(C)CCN1C(=O)C(CC(=O)N2CCC(N3Cc4ccccc4NC3=O)CC2)SC12CCC(C(F)(F)F)CC2` (centres unmarked) [Compound 253]: the IC50 was in the range of 1000 to 5000 nM.
In the case of `CN1CCN(c2c(F)cccc2C2SC(CC(=O)N3CCC(N4Cc5ccccc5NC4=O)CC3)C(=O)N2CCC(C)(C)C)CC1` (centres unmarked) [Compound 323], the IC50 is less than 1000 nM.
In the case of `CC(C)(C)CCN1C(=O)C(CC(=O)N2CCC(N3CCc4ccccc4NC3=O)CC2)SC1c1ccccc1N1CCN(CCO)CC1` (centres unmarked) [Compound 372] it was greater than 5000 nM; in that of `CC(C)(C)CCN1C(=O)C(CC(=O)N2CCC(Nc3ccc(Cl)cc3)CC2)SC1c1cccc(F)c1N1CCN(C(C)(C)C)CC1` (centres unmarked) [Compound 448], less than 1000 nM; in that of `Cc1cccc(C)c1C1SC(CC(=O)N2CCC(N3Cc4ccccc4NC3=O)CC2)C(=O)N1CCC(C)C` (centres unmarked) [Compound 134], less than 1000 nM.
As for `CC(C)(C)CCN1C(=O)C(CC(=O)N2CCC(n3c(=O)[nH]c4ccccc43)CC2)SC12c1ccccc1-c1ccccc12` (centres unmarked) [Compound 311], the IC50 fell in the range of 1000 to 5000 nM.
Regarding `CC(C)(C)CCN1C(=O)C(CC(=O)N2CCC(N3Cc4ccccc4NC3=O)CC2)SC12CCSCC2` (centres unmarked) [Compound 31], the IC50 was less than 1000 nM.
For `CC(C)CCN1C(=O)C(CC(=O)N2CCC(N3CCc4ccccc4NC3=O)CC2)SC1c1c(Cl)cccc1Cl` (centres unmarked) [Compound 89], the IC50 was less than 1000 nM.
Consider `O=C(CC1SC(C2CCOCC2)N(c2ccccc2)C1=O)N1CCC(N2CCc3ccccc3NC2=O)CC1` (centres unmarked) [Compound 420], for which the 50% inhibitory concentration (IC50) is greater than 5000 nM.
As for `CN1CCN(c2ccccc2[C@H]2S[C@](C)(CC(=O)N3CCC(N4Cc5ccccc5NC4=O)CC3)C(=O)N2CCC(C)(C)C)CC1` [Compound 334], the concentration for half-maximal inhibition (IC50) is less than 1000 nM.
On to `CCC1SC(CC(=O)N2CCC(n3cc(-c4ccccc4)[nH]c3=O)CC2)C(=O)N1CC1CC1` (centres unmarked) [Compound 146], for which the IC50 is greater than 5000 nM.
`CCCN1C(=O)C(CC(=O)N2CCC(N3Cc4ccccc4NC3=O)CC2)SC1c1ccccc1` (centres unmarked) [Compound 269]: the IC50 is 1000 to 5000 nM.
As for `CC(C)CCN1C(=O)C(CC(=O)N2CCC(N3Cc4ccccc4NC3=O)CC2)SC1c1ccccc1OCc1ccccc1` (centres unmarked) [Compound 246], the IC50 is less than 1000 nM.
Consider `CC(C)(C)CCN1C(=O)[C@H](CC(=O)N2CCC(n3c(=O)[nH]c4ncccc43)CC2)S[C@H]1c1cccc(F)c1N1CCC(O)C1` (some centres unmarked) [Compound 468], for which the IC50 is less than 1000 nM.
As to `CN1CCC(N2CCN(c3ccccc3C3SC(CC(=O)N4CCC(N5CCc6ccccc6NC5=O)CC4)C(=O)N3CCC(C)(C)C)CC2)CC1` (centres unmarked) [Compound 379], the IC50 was less than 1000 nM.
As to `Cc1cc(C2SC(CC(=O)N3CCC(N4Cc5ccccc5NC4=O)CC3)C(=O)N2CCC(C)(C)C)cc2cn[nH]c12` (centres unmarked) [Compound 179], the IC50 is less than 1000 nM.
In the case of `CN(C)CCN(C)c1ccccc1C1SC(CC(=O)N2CCC(N3CCc4ccccc4NC3=O)CC2)C(=O)N1CCC(C)(C)C` (centres unmarked) [Compound 383] it was 1000 to 5000 nM.
Regarding `CN1CCN(c2ccccc2[C@H]2SC(CC(=O)N3CCCCC3)C(=O)N2CCC(C)(C)C)CC1` (some centres unmarked) [Compound 97], the IC50 was greater than 5000 nM.
`CC(C)CCN1C(=O)C(CC(=O)N2CCC(n3c(=O)[nH]c4ccccc43)CC2)SC1c1ccccc1-n1cccn1` (centres unmarked) [Compound 291]: the concentration for half-maximal inhibition (IC50) was less than 1000 nM.
In the case of `CC(C)(C)CCN1C(=O)C(CC(=O)N2CCC(N3CCc4ccccc4NC3=O)CC2)SC12c1ccccc1-c1ccccc12` (centres unmarked) [Compound 310], the IC50 was less than 1000 nM.
In the case of `CC(C)N1CCN(c2cccc(Cl)c2C2S[C@H](CC(=O)N3CCC(N4CCc5ccccc5NC4=O)CC3)C(=O)N2CCC(C)(C)C)CC1` (some centres unmarked) [Compound 433], the IC50 was greater than 5000 nM.
With `CC(C)CCN1C(=O)C(CC(=O)N2CCC3(CCc4ccccc43)CC2)SC1c1ccccc1` (centres unmarked) [Compound 167] the figure was greater than 5000 nM.
Turning to `CC(C)(C)CCN1C(=O)[C@H](CC(=O)N2CCC(N3CCc4ccccc4NC3=O)CC2)SC1c1cccc(F)c1N1CCC(N)C1` (some centres unmarked) [Compound 466], the IC50 was less than 1000 nM.
`CCCC1SC(CC(=O)N2CCC(N3Cc4ccccc4NC3=O)CC2)C(=O)N1CCC(C)C` (centres unmarked) [Compound 192]: the IC50 was less than 1000 nM.
In the case of `CN1CCN(c2ccc(F)cc2C2SC(CC(=O)N3CCC(N4CCc5ccccc5NC4=O)CC3)C(=O)N2CCC(C)(C)C)CC1` (centres unmarked) [Compound 352], the IC50 was less than 1000 nM.
`CCC(CC)C1SC(CC(=O)N2CCC(N3Cc4ccccc4NC3=O)CC2)C(=O)N1CCC(C)C` (centres unmarked) [Compound 151]: the IC50 was less than 1000 nM.
Regarding `CC1=CCCC(C)C1C1SC(CC(=O)N2CCC(N3CCc4ccccc4NC3=O)CC2)C(=O)N1CCC(C)C` (centres unmarked) [Compound 181], the half-inhibitory concentration (IC50) was less than 1000 nM.
As for `CC(C)CCN1C(=O)C(CC(=O)N2CCC(n3c(=O)[nH]c4ccccc43)CC2)SC1c1ccccc1N(C)C` (centres unmarked) [Compound 293], the IC50 is less than 1000 nM.
Turning to `CC(C)CCN1C(=O)C(CC(=O)N2CCC(N3CCc4ccccc4NC3=O)CC2)SC1[C@@H](C)c1ccccc1` (some centres unmarked) [Compound 11], the concentration for half-maximal inhibition (IC50) is less than 1000 nM.
As for `O=C(CC1SC(c2ccccc2)N(CC(F)(F)C(F)(F)F)C1=O)N1CCC(N2CCc3ccccc3NC2=O)CC1` (centres unmarked) [Compound 233], the IC50 was less than 1000 nM.
Turning to `O=C(CC1SC(c2ccccc2)N(CCc2ccccc2)C1=O)N1CCC(N2CCc3ccccc3NC2=O)CC1` (centres unmarked) [Compound 231], the IC50 is less than 1000 nM.
For `COc1cccc(C2SC(CC(=O)N3CCC(N4Cc5ccccc5NC4=O)CC3)C(=O)N2CCC(C)C)c1` (centres unmarked) [Compound 139], the IC50 fell in the range of 1000 to 5000 nM.
Take `O=C(CC1SC(c2ccccc2F)N(CC2CCCCC2)C1=O)N1CCC(N2CCc3ccccc3NC2=O)CC1` (centres unmarked) [Compound 164]: the IC50 was in the range of 1000 to 5000 nM.
Consider `CC(C)CCN1C(=O)C(CC(=O)N2CCC(N3C(=O)Cc4ccccc43)CC2)SC1c1ccccc1` (centres unmarked) [Compound 270], for which the IC50 was greater than 5000 nM.
Regarding `CCCCN1CCN(c2ccccc2C2SC(CC(=O)N3CCC(N4Cc5ccccc5NC4=O)CC3)C(=O)N2CCC(C)(C)C)CC1` (centres unmarked) [Compound 364], the IC50 was greater than 5000 nM.
With `CN(c1ccccc1C1SC(CC(=O)N2CCC(n3c(=O)[nH]c4ncccc43)CC2)C(=O)N1CCC(C)(C)C)[C@@H]1CCN(Cc2ccccc2)C1` (some centres unmarked) [Compound 408] the figure was less than 1000 nM.
As for `CC(C)CCN1C(=O)C(CC(=O)N2CCC(N3Cc4ccccc4NC3=O)CC2)SC1C1CCCCC1` (centres unmarked) [Compound 95], the IC50 was less than 1000 nM.
Take `CC(C)CCN1C(=O)C(CC(=O)N2CCC(N3CCc4ccccc4NC3=O)CC2)SC1C1CCCOC1` (centres unmarked) [Compound 239]: the IC50 was less than 1000 nM.
Turning to `CC(C)CCN1C(=O)C(CC(=O)N2CCC(N3Cc4ccccc4NC3=O)CC2)SC1c1ccc(S(C)(=O)=O)cc1` (centres unmarked) [Compound 5], the half-inhibitory concentration (IC50) lay in the range of 1000 to 5000 nM.
Regarding `CN1CCN(c2ccccc2C2SC(CC(=O)N3CCC(n4cc(-c5ccccc5)[nH]c4=O)CC3)C(=O)N2CCC(C)(C)C)CC1` (centres unmarked) [Compound 257], the 50% inhibitory concentration (IC50) is less than 1000 nM.
In the case of `CC(C)(C)CCN1C(=O)C(CC(=O)N2CCC(n3c(=O)[nH]c4ncccc43)CC2)SC1c1cccc(F)c1N1CCN(CC(F)(F)F)CC1` (centres unmarked) [Compound 393] it was less than 1000 nM; in that of `COc1ccc(C2SC(CC(=O)N3CCC(N4Cc5ccccc5NC4=O)CC3)C(=O)N2CCC(C)C)cc1OC` (centres unmarked) [Compound 228], 1000 to 5000 nM.
Regarding `CN1CCN(c2cc(F)ccc2C2SC(CC(=O)N3CCC(N4Cc5ccccc5NC4=O)CC3)C(=O)N2CCC(C)(C)C)CC1` (centres unmarked) [Compound 360], the IC50 is less than 1000 nM.

These data come from US8163737B2 (Vertex Pharmaceuticals Incorporated, priority 2006, dated 2012).
